# From ChEMBL document CHEMBL4316583, “In Vitro and in Vivo Antitumor Effects of Plant-Derived Miliusanes and Their Induction of Cellular Senescence” (J Med Chem, 2019)
# Activity calls are given as the source filed them. No cut-off for these calls is given here.
# How the values were obtained:
# [1] = test system: Panel NCI-60 (60 carcinoma cell lines); experiment: Growth inhibition human NCI60 cells after 48 hrs by sulforhodamine B assay; assay type: functional
# HCT-116 [2] = experiment: Cytotoxicity against human HCT116 cells assessed as cell growth inhibition after 48 hrs by sulforhodamine B assay; assay type: functional, cell-based; details: HCT-116, 48 h
# A-375 [3] = experiment: Cytotoxicity against human A375 cells assessed as cell growth inhibition after 48 hrs by sulforhodamine B assay; assay type: functional, cell-based; details: A-375, 48 h
# A549 = experiment: Cytotoxicity against human A549 cells assessed as cell growth inhibition after 48 hrs by sulforhodamine B assay; assay type: functional, cell-based; details: A549, 48 h
# HCT-116 [4] = experiment: Cytotoxicity against human HCT116 cells assessed as cell growth inhibition after 24 hrs by sulforhodamine B assay; assay type: functional, cell-based; details: HCT-116, 24 h
# HCT-116 [5] = experiment: Antiproliferative activity against human HCT116 cells assessed as inhibition of colony formation at 0.66 to 2.63 uM after 14 days by crystal violet-staining based assay; assay type: functional, cell-based
# HCT-116 [6] = experiment: Antitumor activity against human HCT116 cells xenografted in nude BALB/c mouse assessed as reduction in volume of growing subcutaneous tumor at 20 to 30 mg/kg, ip administered twice a week for 3 weeks; assay type: functional, organism-based
# HCT-116 [7] = experiment: Antitumor activity against human HCT116 cells xenografted in nude BALB/c mouse assessed as suppression of excised tumor size at 20 mg/kg, ip administered twice a week for 3 weeks relative to control; assay type: functional
# HCT-116 [8] = experiment: Antitumor activity against human HCT116 cells xenografted in nude BALB/c mouse assessed as suppression of excised tumor size at 30 mg/kg, ip administered twice a week for 3 weeks relative to control; assay type: functional
# HCT-116 [9] = experiment: Antitumor activity against human HCT116 cells xenografted in nude BALB/c mouse assessed as tumor growth inhibition at 30 mg/kg, ip administered twice a week for 3 weeks relative to control; assay type: functional; details: HCT-116, ip, 504 h, read-out: TGI
# HCT-116 [10] = experiment: Antitumor activity against human HCT116 cells xenografted in nude BALB/c mouse assessed as tumor growth inhibition at 20 mg/kg, ip administered twice a week for 3 weeks relative to control; assay type: functional; details: HCT-116, ip, 504 h, read-out: TGI
# HCT-116 [11] = experiment: Antitumor activity against human HCT116 cells xenografted in nude BALB/c mouse assessed as tumor growth inhibition at 7.5 mg/kg, ip administered daily for 21 days relative to control; assay type: functional; details: HCT-116, ip, 504 h, read-out: TGI
# [12] = Toxicity in nude BALB/c mouse xenografted with human HCT116 cells assessed as body weight loss at 20 to 30 mg/kg, ip administered twice a week for 3 weeks; assay type: organism-based; details: in vivo, 504 h
# [13] = Toxicity in nude BALB/c mouse xenografted with human HCT116 cells assessed as body weight loss at 7.5 mg/kg, ip measured on day 10 and 11; assay type: organism-based; details: in vivo
# HeLa [14] = experiment: Antitumor activity against human HeLa cells xenografted in nude BALB/c mouse assessed as tumor growth inhibition at 10 mg/kg, ip administered every other day for 21 days and observed for 6 days before sacrifice relative to control; assay type: functional; details: read-out: TGI
# HeLa [15] = experiment: Antitumor activity against human HeLa cells xenografted in nude BALB/c mouse assessed as suppression of excised tumor size at 10 mg/kg, ip administered every other day for 21 days and observed for 6 days before sacrifice relative to control; assay type: functional
# A-375 [16] = experiment: Antitumor activity against human A375 cells xenografted in nude BALB/c mouse assessed as tumor growth inhibition at 7.5 mg/kg, ip administered every other day for 23 days relative to control; assay type: functional; details: A-375, ip, 552 h, read-out: TGI
# A-375 [17] = experiment: Antitumor activity against human A375 cells xenografted in nude BALB/c mouse assessed as suppression of tumor volume at 7.5 mg/kg, ip administered every other day for 23 days relative to control; assay type: functional; details: A-375, ip, 552 h, read-out: TGI
# HCT-116 [18] = experiment: Growth inhibition human HCT116 cells after 72 hrs by MTS assay; assay type: functional, cell-based; details: HCT-116, 72 h
# [19] = Ratio of IC50 for human HCT116/VM46 cells to IC50 for human HCT116 cells after 72 hrs by MTS assay; assay type: functional
# [20] = Ratio of IC50 for human HCT116/VP35 cells to IC50 for human HCT116 cells after 72 hrs by MTS assay; assay type: functional
# A2780 = experiment: Growth inhibition human A2780 cells after 72 hrs by MTS assay; assay type: functional, cell-based; details: A2780, 72 h
# [21] = Ratio of IC50 for human A2780DDP cells to IC50 for human A2780 cells after 72 hrs by MTS assay; assay type: functional
# [22] = Ratio of IC50 for human A2780/TAX cells to IC50 for human A2780 cells after 72 hrs by MTS assay; assay type: functional
# HCT-116 [23] = experiment: Induction of apoptosis in human HCT116 cells assessed as viable cells at 1.32 uM after 48 hrs by annexin V/propidium iodide-double staining based flow cytometry (reference value: 88.3%); assay type: functional; details: HCT-116, 48 h, read-out: Activity
# HCT-116 [24] = experiment: Induction of apoptosis in human HCT116 cells assessed as early apoptotic cells at 1.32 uM after 48 hrs by annexin V/propidium iodide-double staining based flow cytometry (reference value: 4.8%); assay type: functional
# HCT-116 [25] = experiment: Induction of apoptosis in human HCT116 cells assessed as late apoptotic cells at 1.32 uM after 48 hrs by annexin V/propidium iodide-double staining based flow cytometry (reference value: 4.6%); assay type: functional
# HCT-116 [26] = experiment: Induction of apoptosis in human HCT116 cells assessed as necrotic cells at 1.32 uM after 48 hrs by annexin V/propidium iodide-double staining based flow cytometry (reference value: […]); assay type: functional
# HCT-116 [27] = experiment: Induction cell cycle arrest in human HCT116 cells assessed as accumulation in G1 phase at 1.6 uM after 12 hrs by propidium iodide-staining based flow cytometry; assay type: functional
# HCT-116 [28] = experiment: Induction cell cycle arrest in human HCT116 cells assessed as reduction in accumulation in S phase at 1.6 uM after 12 hrs by propidium iodide-staining based flow cytometry; assay type: functional
# HCT-116 [29] = experiment: Induction cell cycle arrest in human HCT116 cells assessed as accumulation in S phase at 1.6 uM after 24 hrs by propidium iodide-staining based flow cytometry; assay type: functional
# HCT-116 [30] = experiment: Induction of cellular senescence in human HCT116 cells at 1.32 uM after 48 hrs by SA-beta-gal-staining based assay; assay type: functional, cell-based
# HCT-116 [31] = experiment: Induction of cellular senescence in human HCT116 cells assessed as up-regulation of p21 protein expression at 0.1 to 0.4 ug/ml after 48 hrs by Western blot analysis; assay type: functional, cell-based
# HCT-116 [32] = experiment: Induction of cellular senescence in human HCT116 cells assessed as up-regulation of p21 protein expression at 1.32 uM after 48 hrs in presence of p21 siRNA by SA-beta-gal-staining based Western blot analysis; assay type: functional, cell-based
# HT-29 = experiment: Growth inhibition human HT-29 cells after 72 hrs by MTS assay; assay type: functional, cell-based
# HCT-116 [33] = experiment: Antiproliferative activity against human HCT116 cells xenografted in BALB/c mouse at 10 mg/kg, administered every other day for 3 weeks by Ki67-staining based assay; assay type: functional, organism-based
# [34] = Toxicity in BALB/c mouse assessed as mortality at 10 mg/kg, ip dosed daily for 28 days; assay type: organism-based; details: in vivo, 672 h
# Mus musculus [35] = experiment: Induction of cellular senescence in BALB/c mouse xenografted with human HCT116 cells assessed as up-regulation of p21 protein expression at 10 mg/kg, administered every other day for 3 weeks by immunohistochemical analysis; assay type: functional, organism-based
# Mus musculus [36] = experiment: Induction of cellular senescence in BALB/c mouse xenografted with human HCT116 cells assessed as up-regulation of p16 protein expression at 10 mg/kg, administered every other day for 3 weeks by immunohistochemical analysis; assay type: functional, organism-based
# Mus musculus [37] = experiment: Effect on p27 protein expression in BALB/c mouse xenografted with human HCT116 cells at 10 mg/kg, administered every other day for 3 weeks by immunohistochemical analysis; assay type: functional, organism-based
compound,measurement,setting,value
CC(C)=CCC/C(C)=C/[C@H]1OC(=O)C[C@]12C[C@H](O)C=CC2=O,GI50,[1],30 to 4790 nM
same,IC50,HCT-116 [2],2000 to 2610 nM
same,IC50,A-375 [3],1500 nM
same,IC50,A549,2450 nM
same,IC50,HCT-116 [4],3670 nM
same,Activity,HCT-116 [5],Active
same,Activity,HCT-116 [6],Active
same,Activity,HCT-116 [7],72.7%
same,Activity,HCT-116 [8],68.7%
same,inhibition in vivo at 30 mg/kg,HCT-116 [9],72.7%
same,inhibition in vivo at 20 mg/kg,HCT-116 [10],68.7%
same,inhibition in vivo at 7.5 mg/kg,HCT-116 [11],29.9%
same,Activity,[12],1 g
same,Activity,[13],Toxic
same,inhibition in vivo at 10 mg/kg,HeLa [14],30%
same,Activity,HeLa [15],31.5%
same,inhibition in vivo at 7.5 mg/kg,A-375 [16],12.8%
same,inhibition in vivo at 7.5 mg/kg,A-375 [17],20.6%
same,IC50,HCT-116 [18],1520 nM
same,Ratio IC50,[19],0.9
same,Ratio IC50,[20],1.1
same,IC50,A2780,1230 nM
same,Ratio IC50,[21],1
same,Ratio IC50,[22],0.8
same,viability at 1.32 µM,HCT-116 [23],88.2%
same,Activity,HCT-116 [24],4.4%
same,Activity,HCT-116 [25],4.9%
same,Activity,HCT-116 [26],2.5%
same,Activity,HCT-116 [27],Active
same,Activity,HCT-116 [28],inactive
same,Activity,HCT-116 [29],inactive
same,Activity,HCT-116 [30],Active
same,Activity,HCT-116 [31],Active
same,Activity,HCT-116 [32],inactive
same,growth inhibition (GI),HT-29,Active
same,Activity,HCT-116 [33],Active
same,Activity,[34],Non-Toxic
same,Activity,Mus musculus [35],Active
same,Activity,Mus musculus [36],Active
same,Activity,Mus musculus [37],inactive
